The values below come from publication PMC3125149, “SCYX-7158, an Orally-Active Benzoxaborole for the Treatment of Stage 2 Human African Trypanosomiasis” (PLoS Neglected Tropical Diseases, 2011).

SMILES strings stand for the structures. Values after ≈ are worked out from the molar mass of the structure shown.

One data set has as its system T. b. brucei 427. In words: In vitro compound sensitivity assay (resazurin viability). Format: cell-based. To be noted: Trypanosoma brucei. The text has this:
(§1) The bloodstream-form T. b. brucei 427 strain was obtained from Dr. K. Stuart (Seattle Biomedical Research Institute, Seattle, WA) and was used for routine assessment of compound sensitivity in vitro. Additional strains used in vitro include T. b. rhodesiense STIB900, isolated in 1992 from a patient in Tanzania, and T. b. gambiense 108R, isolated from a patient in Democratic Republic of Congo in 2005. T. b. brucei EATRO 110 was a generous gift from the late William Trager of the Rockefeller University. T. b. brucei TREU 667 strains were kindly provided by F. W. Jennings at the University of Glasgow. Both T. b. brucei EATRO 110 and TREU 667 were cultured according to previously described conditions and used for in vivo studies.[18], [19]
(§2) T. b. brucei was cultured in complete HMI-9 medium,[20] which contains 10% fetal bovine serum (FBS) (Invitrogen, Carlsbad, CA), 10% Serum Plus medium (SAFC Biosciences, Lenexa, KS), and 100 units/mL penicillin and 0.1 mg/mL streptomycin. The trypanosomes were propagated in T-25 vented cap flasks (Corning Inc., Lowell, MA) at 37°C and 5% CO2 with humidity. To ensure log growth phase, trypanosomes were sub-cultured at appropriate dilutions (typically 1∶100) every 2–3 days in fresh HMI-9 medium. T. b. rhodesiense parasites were grown in MEM medium with Earle's salts supplemented with 15% horse serum. For T. b. gambiense, the MEM medium was supplemented with 5% heat-inactivated fetal calf serum (FCS) and 15% human serum.[21] L929 mouse fibroblast cells (ATCC CCL1, American Type Culture Collection, Rockville, MD) were used to determine parasite versus mammalian cell selectivity. Cells were cultured in Dulbecco's Modified Eagle Medium (DMEM), supplemented with 10% FBS, L-glutamine and 100 units/mL penicillin and 0.1 mg/mL streptomycin. MDCKII-hMDR1 cells were generously provided by P. Borst at the Netherlands Kancer Institute. Cells were cultured in DMEM with Glutamax, 10% (v/v) FBS, and 100 units/mL penicillin and 0.1 mg/mL streptomycin. Cell monolayers were fed with cell culture media 24 h after seeding and used for permeability studies 3 days later.
(§3) Compounds to be tested were serially diluted in DMSO and added to 96-well plates to give final concentrations ranging from 5 to 0.01 µg/mL. T. b. brucei parasites in the log phase of growth were diluted in HMI-9 media and added to each well for a final concentration of 1×10^4 parasites per well. For the sensitivity assays using T. b. rhodesiense and T. b. gambiense, pararasites were cultured in MEM supplemented with Baltz components (8), diluted in the aforementioned culture media, and added to each well at a density of 1×10^3 cells/well. The final concentration of DMSO was 0.5% and the total volume was 100 µL/well. After a 72 h incubation, resazurin (Sigma-Aldrich, St. Louis, MO) was added to each well [20 µL of 25 mg/100 mL stock in phosphate buffered saline (PBS)] and incubated for an additional 4–6 h.[22] To assess cell viability, fluorescence was quantified using an EnVision Multilabel Plate Reader (Perkin Elmer, Waltham, MA) at an excitation wavelength of 530 nm and emission of 590 nm. Triplicate data points were averaged to generate sigmoidal dose-response curves and determine IC50 values using XLfit curve fitting software from IDBS (Guilford, UK). The IC50 is defined as the amount of compound required to decrease parasite or cell viability by 50% compared to those grown in the absence of the test compound. […]
A general note: The colour change of resazurin is a common sign of viable cells or microbes.

The test system of another data set is T. b. gambiense 108R. The data set is described as above. To be noted: Trypanosoma brucei, 72 h incubation, n = 1. It is filed as cell-based.
Excerpt: as §1, §2, §3

Data set [1] concerns T. b. rhodesiense STIB 900. The description is as above. To be noted: Trypanosoma brucei; 72 h incubation; n = 1. It is filed as cell-based.
Excerpt: as §1, §2, §3

Data set [2] is described as follows: Tolerability in mice during efficacy studies. Format: in vivo. To be noted: doses up to 100 mg/kg BID (200 mg/kg/day), highest dose administered.
The nature of data set [3]: Pharmacokinetics in cynomolgus monkeys. Format: in vivo, cynomolgus monkey. As to the method:
The blood distribution, CNS disposition and pharmacokinetics of SCYX-7158 were evaluated in infected or non-infected rodents following intravenous or oral administration of compounds. Pharmacokinetics and bioavailability of SCYX-7158 were also evaluated in non-infected beagle dogs and cynomolgus monkeys. In-life phases of non-infected rodent studies were performed at Vivisource (Waltham, MA); studies in non-naïve cynomolgus monkeys were performed by SNBL USA (Everett, WA). Male CD-1 mice (∼25 g), male Sprague-Dawley rats (∼225 g), or male cynomolgus monkeys (∼3–5 kg) were administered test article by either bolus intravenous injection (IV) or oral gavage. Animals in the IV groups received a single 2 mg/kg IV dose. Animals received oral doses of test articles as either single or twice daily doses ranging from 8 mg/kg to 50 mg/kg. All doses were administered as clear colorless solutions in either 50% (v/v) PEG 400: 20% (v/v) ethanol: 30% (v/v) carboxymethylcellulose (0.5% w/v in sterile water for injection) or 2% (v/v) ethanol: 5% (w/v) dextrose in sterile water for injection. […] For pharmacokinetic analysis, blood samples were collected from mice via cardiac puncture under terminal anaesthesia. Serial blood samples were collected from rats via a vascular access port located in the lateral saphenous vein. Mice and rats were euthanized in a CO2 chamber before collection of terminal blood samples or brain tissue. Blood samples were collected into polypropylene tubes containing K2EDTA anticoagulant and stored on ice until centrifuged for the preparation of plasma. Plasma was stored at −70°C. Whole brains were collected following decapitation, blotted dry, placed into polypropylene containers and then immediately frozen at approximately −70°C. CSF was collected from rats via cisterna magna puncture, placed in sterile polypropylene tubes, and stored at approximately −70°C. […] Treated samples were gently mixed at room temperature for 10 min, and then centrifuged at approximately 3000×g for 15 min at 15°C. The supernatants were transferred to 96-well plates or HPLC vials for analysis by LC-MS/MS. Pharmacokinetic parameters were calculated from composite mean plasma or tissue data using non-compartmental (oral and intravenous routes) and bi-exponential (intravenous route) analyses in Microsoft Excel.

By IC50 is commonly meant the concentration at which inhibition is half-maximal. A low value points to greater potency in that assay. One may read the MIC as the least concentration at which growth counts as inhibited. Read a high MIC as weaker potency. In general, AUC(0-inf) refers to total exposure, with the tail of the curve extrapolated. A higher AUC(0-inf) goes with high exposure. By Cmax is commonly meant the highest concentration seen after dosing. One may read the bioavailability as dose-corrected exposure relative to a reference, in per cent. Broadly, the clearance is the volume of plasma or blood freed of the substance per unit of time. Low readings indicate a low capacity for elimination, high ones a high capacity for elimination. Regarding `CC1(C)OB(O)c2cc(NC(=O)c3ccc(F)cc3C(F)(F)F)ccc21` [SCYX-7158], the half-inhibitory concentration (IC50) with T. b. brucei 427 (72 h incubation, n = 9) is 0.292 ± 0.019 µg/mL (≈ 0.795 µM); in the data set with T. b. gambiense 108R, 0.165 µg/mL (≈ 0.449 µM); in data set [1], 0.294 µg/mL (≈ 0.801 µM). The lowest concentration to inhibit growth in the data set on T. b. brucei 427 (T. b. brucei S427, visual inspection) (MIC) was 0.6 µg/mL (≈ 1.63 µM). Moreover, the tolerability entry in data set [2] is reported as “well tolerated”. Besides, the “time of Cmax” value in data set [3] (10 mg/kg NG, plasma) is 9.5 h. For the same compound, the Kp in data set [3] (male, cynomolgus monkey, CSF/plasma, at each time point, read-out: CSF concentration as % of the plasma concentration) is ~0.05. Further, the AUC(0-inf) in data set [3] (male, cynomolgus monkey, oral, 10 mg/kg SCYX-7158 NG, plasma) is 460 µg·h/mL; in data set [3] (male, cynomolgus monkey, 2 mg/kg IV, plasma) it was 94.4 µg·h/mL. The same compound came in with a Cmax in data set [3] (male, cynomolgus monkey, oral, 10 mg/kg SCYX-7158 nasogastric (NG), plasma) of 11000 ng/mL. For the same compound, the bioavailability in data set [3] (male, cynomolgus monkey, plasma, po, 10 mg/kg NG, read-out: absolute oral bioavailability) turned out to be 89%. Besides, the CL/F in data set [3] (male, cynomolgus monkey, plasma, po, 10 mg/kg NG, read-out: oral clearance (Cl/F) (converted)) was 0.417 mL/min/kg. In data set [3] (male, cynomolgus monkey, plasma, 2 mg/kg IV), this compound gave a clearance of 0.367 mL/min/kg. Also, the Vd in data set [3] (male, cynomolgus monkey, plasma, 2 mg/kg IV, read-out: Vdss) was 0.656 L/kg. Moreover, the AUC(0-t) in data set [3] (male, cynomolgus monkey, 2 mg/kg IV, plasma, read-out: AUC0–24 h) worked out at 78800 ng·h/mL.
